# According to patent publication US12653191B2, “Active compound combinations” (Bayer Aktiengesellschaft, priority 2020, dated 2026):
# Read-outs that look alike come from different tables or passages of the source.
# Key:
# Colletotrichum coccodes = assay: in vitro-Test with fungal microorganisms, Method B (tables J1-J11); assay type: cell-based; conditions: Colletotrichum coccodes, read-out: Efficacy %
# In short: (§1)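 Efficacy scale: 0% means growth equal to the untreated control, 100% means none detected. Compounds are dried from methanol with emulsifier before adding inoculated growth medium; incubation at 20° C., 85% relative humidity for 3 to 7 days precedes photometric inhibition readout.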
# Cercospora beticola = assay: in vitro-Test with fungal microorganisms, Method B (tables C11-C20); assay type: cell-based; conditions: Cercospora beticola, single compound, 4 ppm; read-out: Efficacy %
# In short: as §1
# Diaporthe citri [1] = assay: in vitro-Test with fungal microorganisms, Method B (tables F12-F15); assay type: cell-based; conditions: Table F15
# In short: as §1
# [2] = system: Colletotrichum lindemuthianum; assay: in vitro-Test with fungal microorganisms, Method A (tables D1-D8); assay type: cell-based; conditions: Colletotrichum lindemuthianum, read-out: Efficacy %
# In short: (§2)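 Methanol/emulsifier compound solution evaporated in well; liquid potato dextrose medium + spore or mycelium suspension added; 20° C, 85% RH, 3-5 d; photometric read 620 nm; % efficacy vs untreated.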
# Parastagonospora nodorum [3] = assay: in vitro-Test with fungal microorganisms, Method A (tables H1-H4); assay type: cell-based; conditions: single active compound
# In short: as §2
# Fusarium culmorum = assay: in vitro-Test with fungal microorganisms, Method A (tables G1-G4); assay type: cell-based; conditions: alone
# In short: as §2
# Cordana musae = assay: in vitro-Test with fungal microorganisms, Method A (tables E1-E8); assay type: cell-based; conditions: mixing partner alone
# In short: as §2
# Parastagonospora nodorum [4] = assay: in vitro-Test with fungal microorganisms, Method B (tables H5-H8); assay type: cell-based; conditions: Parastagonospora nodorum, read-out: Efficacy
# In short: as §1
# Diaporthe citri [5] = assay: in vitro-Test with fungal microorganisms, Method A (tables F1-F11); assay type: cell-based; conditions: Diaporthe citri, applied alone, read-out: Efficacy
# In short: as §2
# Alternaria alternate = assay: in vitro-Test with fungal microorganisms, Method A (tables A1-A12); assay type: cell-based, Alternaria alternata; conditions: Alternaria, applied alone, read-out: Efficacy %
# In short: as §2
# [6] = system: Ustilago segetum var. avenae; assay: in vitro-Test with fungal microorganisms, Method A (tables I1-I5); assay type: cell-based; conditions: alone, read-out: Efficacy %
# In short: as §2
# Botrytis cinerea = assay: in vitro-Test with fungal microorganisms, Method A (tables B1-B14); assay type: cell-based
# In short: as §2
# [7] = Log P by HPLC on reversed phase columns (LC-UV), method [a]: acidic range, 0.1% formic acid in water / acetonitrile; assay type: physicochemical; conditions: method [a]
# Procedure: Measurement of Log P Values
# Measurement of Log P values as provided herein was performed according to EEC directive 79/831 Annex V.A8 by HPLC (High Performance Liquid Chromatography) on reversed phase columns with the following methods: • ^[a]
# If more than one Log P value is available within the same method, all the values are given and separated by “+”.
# [8] = acidic range (0.1% formic acid), Table 17, compounds of formula (10)
compound,measurement,setting,value
"CCCN(CC)CC1COC2(CCC(C(C)(C)C)CC2)O1 (stereo not shown) [(1.020) spiroxamine, spiroxamine]",inhibition of growth at 0.8 ppm,Colletotrichum coccodes,0%
same,inhibition of growth at 4 ppm,Colletotrichum coccodes; 4 ppm,0%
same,inhibition of growth at 20 ppm,Colletotrichum coccodes,0%
same,inhibition of growth at 0.8 ppm,Colletotrichum coccodes; applied alone,0%
same,inhibition of growth at 20 ppm,Colletotrichum coccodes; applied alone,39%
same,inhibition of growth at 4 ppm,Cercospora beticola,6%
same,Efficacy,Diaporthe citri [1]; 4 ppm alone,0%
same,Efficacy,Diaporthe citri [1]; 20 ppm alone,4%
same,inhibition of growth at 0.8 ppm,"[2]; mixing partner alone, 0.8 ppm",0%
same,inhibition of growth at 20 ppm,"[2]; mixing partner alone, 20.0 ppm",6%
same,inhibition of growth at 0.8 ppm,[2]; single active at 0.8 ppm,0%
same,inhibition of growth at 4 ppm,[2]; single active at 4.0 ppm,8%
same,inhibition of growth at 20 ppm,[2]; single active at 20.0 ppm,0%
same,Efficacy,Parastagonospora nodorum [3]; 0.8 ppm,2%
same,Efficacy,Parastagonospora nodorum [3]; 4.0 ppm,4%
same,Efficacy,Parastagonospora nodorum [3]; 20.0 ppm,7%
same,Efficacy,Fusarium culmorum; 4.0 ppm,0%
same,inhibition of growth at 20 ppm,"Fusarium culmorum; Fusarium culmorum, 20.0 ppm, read-out: Efficacy",0%
same,inhibition of growth at 20 ppm,"Cordana musae; Neocordana musae, 20.0 ppm, read-out: Efficacy %",9%
same,Efficacy %,Cordana musae; 0.8 ppm,0%
same,inhibition of growth at 0.8 ppm,Parastagonospora nodorum [4]; 0.8 ppm,5%
same,inhibition of growth at 4 ppm,Parastagonospora nodorum [4]; 4 ppm,5%
same,inhibition of growth at 20 ppm,Parastagonospora nodorum [4]; 20 ppm,17%
same,inhibition of growth at 0.8 ppm,Diaporthe citri [5]; 0.8 ppm,6%
same,inhibition of growth at 4 ppm,Diaporthe citri [5]; 4.0 ppm,8%
same,inhibition of growth at 20 ppm,Diaporthe citri [5]; 20.0 ppm,0%
same,inhibition of growth at 0.8 ppm,Alternaria alternate; 0.8 ppm,18%
same,inhibition of growth at 4 ppm,Alternaria alternate; 4 ppm,12%
same,inhibition of growth at 20 ppm,Alternaria alternate; 20 ppm,16%
same,inhibition of growth at 0.8 ppm,[6]; 0.8 ppm,3%
same,inhibition of growth at 4 ppm,[6]; 4.0 ppm,71%
same,inhibition of growth at 20 ppm,[6]; 20.0 ppm,100%
same,inhibition of growth at 0.8 ppm,"Botrytis cinerea; Botrytis cinerea, 0.8 ppm, read-out: Efficacy",0%
same,inhibition of growth at 4 ppm,"Botrytis cinerea; Botrytis cinerea, 4.0 ppm, read-out: Efficacy",0%
same,inhibition of growth at 20 ppm,"Botrytis cinerea; Botrytis cinerea, read-out: Efficacy",18%
same,inhibition of growth at 0.8 ppm,"Botrytis cinerea; Botrytis cinerea, alone, 0.8 ppm, read-out: Efficacy %",0%
same,inhibition of growth at 20 ppm,"Botrytis cinerea; Botrytis cinerea, alone, read-out: Efficacy %",14%
same,Efficacy %,"Botrytis cinerea; alone, 0.8 ppm",0%
N/C(=N\O)c1cc(Cl)nnc1Oc1cccc(Br)c1F [Compound 10-05],chromatographic logP,[7]; [8],2.21
Cc1ccc(CC(CCl)NC(=NO)c2cc(Cl)nnc2Oc2cccc(C(F)(F)F)c2)c(C)c1 (stereo not shown) [Compound 20-08],LogP,[7],2.77^[a]
COc1cccc(Oc2nnc(Cl)cc2C#N)c1 [Compound 9-08],chromatographic logP,"[7]; acidic range (0.1% formic acid), Table 15, compounds of formula (9)",2.75
N/C(=N\O)c1cc(Cl)nnc1Oc1cccc(C2CC2)c1 [Compound 10-08],chromatographic logP,[7]; [8],2.19
Cc1cc(C(=O)NC(CON2C(=O)c3ccccc3C2=O)Cc2ccc(C)c(C)c2)c(Oc2cccc(Cl)c2F)nn1 (stereo not shown) [Compound 3-45],LogP,"[7]; acidic range (0.1% formic acid), Table 7, compounds of formula (3)",4.42^[a]
